Columns and labels:
SW48 = test: MTT cytotoxicity assay, 72 hour incubation; format: cell-based; conditions: Homo sapiens, SW48, 3 runs
Procedure: (§1) The cytotoxicity of compounds 26, 34, 50,58 and 68 were evaluated in a variety of cell lines using the standard MTT assay for a 72 hour incubation period (Table 1).
(§2) Tumor cell lines were maintained in RPMI1640 medium supplemented with 10% heat-inactivated fetal bovine serum, 2 mM L-glutamine and 1 mM sodium pyruvate. 1800 cells per well were seeded in a volume of 180 μl in a 96-well flat bottom polystyrene plate. The cells were allowed to adhere overnight at 37° C. in a CO2 incubator. Ligands were initially formulated in DMSO, and stocks stored at −80° C. They were then further formulated at lox concentration in RPMI1640 medium. 20 ul of diluted samples were added into each treatment well. On each plate, blank wells with no cells, and untreated wells containing cells, were included. Plates were then cultured at 37° C. in a CO2 incubator for 72 hrs. Cytotoxicity was evaluated using a tetrazolium salt-based assay, the MT assay. After 72 hours, the supernatant was removed from each well and 200 μl of a sterile filtered 500 μg/ml MT solution in water added to each well. The plates were then incubated at 37° C. in a CO2 incubator for 4 hrs. The supernatant was then removed and the formazan crystals formed solubilized by adding 150 μl of DMSO to each well. The plate was then read on a plate reader at 540 nm, and percentage cell survival calculated as follows: ((mean absorbance treated wells at concentration x—mean absorbance blank wells)÷(mean absorbance untreated wells at concentration x—mean absorbance blank wells))×100. Data were plotted as concentration in nM vs. % cell survival in Microsoft Excel, and IC50 values (concentration where cell survival is reduced by a half) were determined from the graph.

MCF-7 = test: MTT cytotoxicity assay, 72 hour incubation; format: cell-based; conditions: Homo sapiens, MCF7, 3 runs
Procedure: as §1, §2

ZR 75-1 = test: MTT cytotoxicity assay, 72 hour incubation; format: cell-based; conditions: Homo sapiens, 3 runs
Procedure: as §1, §2

SK-BR-3 = test: MTT cytotoxicity assay, 72 hour incubation; format: cell-based; conditions: Homo sapiens, 3 runs
Procedure: as §1, §2

SW 620 = test: MTT cytotoxicity assay, 72 hour incubation; format: cell-based; conditions: Homo sapiens, SW-620, 3 runs
Procedure: as §1, §2

[1] = tested on: fluorescently labelled DNA duplexes; test: FRET DNA melting; format: binding
Procedure: FRET DNA Melting FRET DNA melting studies were undertaken on 26 and 34 using a number of fluorescently labelled sequences. The sequences (FIG. 10) were designed to provide additional evidence that 26 and 34 can form inter- and intrastrand cross-links at the site 5′-XYWWYWYX-3′.
The short duplexes used in this FRET study are relatively unstable in the duplex form with a melting temperature below 30° C. so that, in the absence of ligand, a large part of the melting occurs below the starting temperature of the experiment.
Oligonucleotides were obtained from ATDbio (Southampton, UK) in lyophilised form. They were labelled with a fluorophore molecule (F=fluorescein) at the 5′-end and a quencher molecule (Q=dabcyl) at the 3′-end of the complementary strand. Each oligonucleotide was dissolved in distilled H2O to form stock solutions of 100 μM. Working solutions of 5 μM were prepared by diluting the stock solution with distilled H2O.
The following buffers were used: 250 mM phosphate buffer pH 7.4 (consisting of sodium dihydrogen phosphate and sodium phosphate diluted in distilled H2O) and 5 M sodium chloride buffer. All buffers and distilled H2O were filtered through a […] filter prior to use.
The reaction mixture was comprised of 4 μL of 250 mM phosphate buffer (final concentration of 50 mM), 4 μL flourophor and 4 μL quencher molecule of the appropriate oligonucleotide for a final concentration of 0.2 μM, 4 μL 5 M sodium chloride (final concentration of 1 M NaCl), and 4 μL of distilled H2O. This mixture was heated in an Eppendorf tube at 90° C. for 1 min and slowly cooled down to room temperature. This process was carried out to anneal the single strands to double-stranded DNA. Following this, 4 μL of the ligand was added in the desired concentration and the mixture incubated overnight either at room temperature or 4° C. […] This mixture was analysed without prior annealing.
Fluorescence melting profiles were measured using a Roche LightCycler using a total reaction volume of 20 μL. […] Annealing steps and melting steps were all recorded and changes in fluorescence were measured at 520 nm. […]

**Q.** What does the source list for CNS(=O)(=O)c1ccc(C2=CCN3C(=O)c4cc(OC)c(OCc5cccc(COc6cc7c(cc6OC)C(=O)N6CC=C(c8ccc(S(=O)(=O)NC)cc8)C[C@H]6C=N7)n5)cc4N=C[C@@H]3C2)cc1 [Compound 34, 4,4′-((6aS,6a′S)-((Pyridine-2,6-diylbis(methylene))bis(oxy))bis(2-methoxy-12-oxo-6a,7,10,12-tetrahydrobenzo[e]pyrido[1,2-α][1,4]diazepine-3,8-diyl))bis(N-methylbenzenesulfonamide)]?
**A.** IC50 (SW48): 0.0077 nM; IC50 (MCF-7): 0.057 nM; IC50 (ZR 75-1): 0.159 nM; IC50 (SK-BR-3): 0.041 nM; IC50 (SW 620): 0.325 nM; Tm of duplex with ligand ([1]; 5′-AAAAAAGAGAACAAAAAA-3′ (Seq 23), interstrand cross-link): ~71 °C; stabilisation of duplex ([1]; 5′-AAAAAAGATCAAAAAA-3′ (Seq 12), traditional PBD binding site): limited stabilisation; Tm of duplex with ligand ([1]; AAAAAAGAGAGAAAAAA-3′ (Seq 20), intrastrand cross-link): 66 °C

Source: patent US11466032B2, “Cytotoxic agents” (FEMTOGENIX LIMITED, priority 2017, dated 2022)
